Test results reported in patent US20200407398A1, “Short Proline-Rich Lipopeptide Potentiates Minocycline and Rifampicin Against Multidrug-and Extensively Drug-Resistant Pseudomonas Aeruginosa” (priority 2018, published 2020).
Where two headings read alike, the source gives them in different places. Peptide text beside a SMILES is read from it. * marks the point of attachment. Acetyl(1-adamantyl) = O=C(CC12CC3CC(CC(C3)C1)C2)*; Palmitoyl = CCCCCCCCCCCCCCCC(=O)*; Lauroyl = CCCCCCCCCCCC(=O)*; Octanoyl = CCCCCCCC(=O)*

What was measured:
pig erythrocytes = assay type: cell-based
Method: Since PRAMPs are able to kill bacteria through membrane lysis, it is imperative to evaluate whether these synthesized SPRLPs also lyse eukaryotic membranes. The ability to lyse porcine red blood cells was assessed and the minimum concentration to result in 5% erythrocyte hemolysis (MHC) was reported (Tables 2 & 3). […] This greatly limits their therapeutic potential. […] However, all other SPRLPs were non-hemolytic (MHC>512 μg/mL).
The ability of SPRLPs to lyse eukaryotic red blood cells were quantified by the amount of hemoglobin released upon incubation with pig erythrocytes, following published protocols (37, 39). Fresh pig blood drawn from pig antecubital vein was centrifuged at 1000×g for 5 minutes at 4° C., washed with PBS three times and re-suspended in the same buffer, consecutively. Then, agents of interest were 2-fold serially diluted in PBS on 96-well plate and mixed with equal volumes of erythrocyte solution. Post 1-hour incubation at 37° C., intact cells were pelleted by centrifugation at 1000×g for 5 minutes at 4° C. The supernatant was then transferred to a new 96-well plate. The hemoglobin released was measured via EMax Plus microplate reader (Molecular Devices, USA) at 570 nm wavelength. Erythrocytes in PBS with or without 0.1% Triton X-100 was used as negative or positive control, respectively.

[1] = tested on: wild-type and MDR/XDR P. aeruginosa clinical isolates; settings: checkerboard assay; P. aeruginosa
Method: We evaluated the activity of SPRLPs in combination with fifteen clinically-used antibiotics against P. aeruginosa. Antibiotics tested included fluoroquinolones (moxifloxacin, ciprofloxacin and levofloxacin), aminoglycosides (gentamicin, tobramycin and amikacin), cephalosporins (ceftazidime and cefotaxime), carbapenems (meropenem and doripenem), aztreonam, rifampicin, minocycline, colistin and fosfomycin. The SPRLPs were screened initially at a fixed concentration of 8 μg/mL (5 μM) in combination with antibiotics against wild-type P. aeruginosa PAO1. We assessed potentiation by at least a four-fold absolute MIC reduction of the antibiotic, after which synergism was further validated by a conventional checkerboard assay. A fractional inhibitory concentration (FIC) index of ≤0.5, 0.5<x≤4 or >4 was interpreted as synergistic, indifferent or antagonistic interaction, respectively (31). FIC index was obtained by adding the FIC values of the antibiotic and the SPRLP adjuvant. FIC of antibiotics was calculated by dividing the MIC of the antibiotic in the presence of the adjuvant by the MIC of the antibiotic alone. Similarly, the FIC of adjuvant was calculated via dividing the MIC of the adjuvant in the presence of the antibiotic by the MIC of the adjuvant alone.
(§1) Isolates used in this study were either obtained from the American Type Culture Collection (ATCC), the Canadian National Intensive Care Unit (CAN-ICU) surveillance study (27) or the Canadian Ward Surveillance (CANWARD) study (28). Clinical isolates belonging to the CAN-ICU and CANWARD studies were recovered from patients suffering a presumed infectious disease entering or admitted in a participating medical center across Canada during the time of study. MDR P. aeruginosa strains in this study refer to those that are resistant to aminoglycosides, fluoroquinolones, cephalosporins, and carbapenems while XDR strains are those that are resistant to aminoglycosides, fluoroquinolones, cephalosporins, carbapenems, aztreonam and penicillin+β-lactamase inhibitor combination (39, 40).
(§2) Microbroth dilution susceptibility test following the Clinical and Laboratory Standards Institute (CLSI) guidelines (32) was performed to assess the in vitro antibacterial activity of SPRLPs. Overnight grown bacterial cultures were diluted in saline to achieve a 0.5 McFarland turbidity, followed by 1:50 dilution in Mueller-Hinton broth (MHB) for inoculation to a final concentration of 5×10^5 colony forming units/mL. The assay was done on a 96-well plate to which the agents of interest were 2-fold serially diluted in MHB and incubated with equal volumes of inoculum at 37° C. for 18 hours. MIC was determined as the lowest concentration to inhibit visible bacterial growth in form of turbidity, which was confirmed using EMax Plus microplate reader (Molecular Devices, USA) at a wavelength of 590 nm. The well containing MHB broth with or without bacterial cells was used as positive or negative control, respectively.
The assay was performed on a 96-well plate, to which the agents of interest was 2-fold serially diluted in working MHB. Prior to serial dilution, SPRLP was added to the working MHB media so that a fixed final concentration of 8 μg/mL (5 μM) SPRLP per well was achieved. To ensure that the assay was working, the MIC determination test of the studied antibiotic (without SPRLP) was included on the same plate. Similar MIC results between the assay comparator and an independent MIC determination test (on a different plate) ensured validity of the synergy test. Overnight grown bacterial cultures were diluted in saline to 0.5 McFarland turbidity, followed by 1:50 dilution in MHB (without SPRLP) and inoculation into each well to a final concentration of approximately 5×10^5 colony forming units/mL. Wells containing only MHB (without SPRLP) with or without bacterial cells were used as positive or negative control, respectively.

E. faecalis ATCC 29212 = assay type: cell-based
Method: (§3) The synthesized SPRLPs were evaluated for their antibacterial potency against a panel of Gram-positive and Gram-negative bacteria (Tables 2 & 3). Some of the included pathogens were collected from patients visiting or admitted to participating Canadian hospitals through the CAN-ICU (27) and CANWARD (28) national surveillance studies. Antibacterial activity was assessed using minimum inhibitory concentration (MIC) against various clinical pathogens.
as §1, §2

[2] = tested on: E. coli CAN-ICU 63074 (amikacin-intermediate resistant); assay type: cell-based
Method: as §3, §1, §2

[3] = tested on: P. aeruginosa CAN-ICU 62308 (gentamicin-resistant); assay type: cell-based
Method: as §3, §1, §2

[4] = tested on: methicillin-resistant S. aureus ATCC 33592; assay type: cell-based
Method: as §3, §1, §2

[5] = tested on: methicillin-susceptible Staphylococcus epidermidis CANWARD-2008 81388; assay type: cell-based; settings: methicillin-susceptible CANWARD-2008 81388
Method: as §3, §1, §2

[6] = tested on: A. baumannii CAN-ICU 63169; assay type: cell-based
Method: as §3, §1, §2

E. faecium ATCC 27270 = assay type: cell-based
Method: as §3, §1, §2

K. pneumoniae ATCC 13883 = assay type: cell-based
Method: as §3, §1, §2

[7] = tested on: E. coli CANWARD-2011 97615 (gentamicin-, tobramycin-, ciprofloxacin-resistant) aac(3′)iia; assay type: cell-based
Method: as §3, §1, §2

P. aeruginosa ATCC 27853 = assay type: cell-based
Method: as §3, §1, §2

[8] = tested on: E. coli CAN-ICU 61714 (gentamicin-resistant); assay type: cell-based
Method: as §3, §1, §2

S. aureus ATCC 29213 = assay type: cell-based
Method: as §3, §1, §2

[9] = tested on: P. aeruginosa CANWARD-2011 96846 (gentamicin-, tobramycin-resistant); assay type: cell-based
Method: as §3, §1, §2

[10] = tested on: S. maltophilia CAN-ICU 62584; assay type: cell-based
Method: as §3, §1, §2

[11] = tested on: P. aeruginosa wild-type PAO1; assay type: cell-based
Method: as §3, §1, §2

[12] = tested on: methicillin-resistant S. epidermidis CAN-ICU 61589 (ceftazidime-resistant); assay type: cell-based; settings: methicillin-resistant CAN-ICU 61589 (ceftazidime-resistant)
Method: as §3, §1, §2

E. coli ATCC 25922 = assay type: cell-based
Method: as §3, §1, §2

Structure (SMILES)	MIC (E. faecalis ATCC 29212)	MIC [2]	MIC [3]	MIC [4]	MIC [5]	MIC [6]	MIC (E. faecium ATCC 27270)	MIC (K. pneumoniae ATCC 13883)	MIC [7]	MIC (P. aeruginosa ATCC 27853)	MIC [8]	MIC (S. aureus ATCC 29213)	MIC [9]	MIC [10]	MIC [11]	MIC [12]	MIC (E. coli ATCC 25922)	MHC (minimum concentration that resulted in 5% red blood cell hemolysis) (pig erythrocytes; red cells of porcine)	interaction with minocycline (in words) [1]	interaction with rifampicin (in words) [1]	further results
CCCCCCCC(=O)N1CCC[C@H]1C(=O)N[C@@H](CCCNC(=N)N)C(=O)N1CCC[C@H]1C(=O)N[C@@H](CCCNC(=N)N)C(=O)N1CCC[C@H]1C(=O)N[C@@H](CCCNC(=N)N)C(=O)N1CCC[C@H]1C(N)=O [Compound C8-PRP, CH3(CH2)6CO-PRPRPRP-NH2] (Octanoyl-PRPRPRP-NH2)	>128 µg/mL	>128 µg/mL	>128 µg/mL	>128 µg/mL	>128 µg/mL	>128 µg/mL	>128 µg/mL	>128 µg/mL	>128 µg/mL	>128 µg/mL	>128 µg/mL	>128 µg/mL	>128 µg/mL	>128 µg/mL	>512 µg/mL	>128 µg/mL	>128 µg/mL	>512 µg/mL	indifferent interaction	indifferent interaction	–
CC(C)C[C@H](NC(=O)[C@@H]1CCCN1C(=O)[C@H](CCCNC(=N)N)NC(=O)[C@@H]1CCCN1C(=O)CC12CC3CC(CC(C3)C1)C2)C(=O)N1CCC[C@H]1C(=O)N[C@@H](CCCNC(=N)N)C(=O)N1CCC[C@H]1C(N)=O [Ad-PLP, Adamantyl-CH2CO-PRPLPRP-NH2] ({Acetyl(1-adamantyl)}-PRPLPRP-NH2)	>128 µg/mL	>128 µg/mL	>128 µg/mL	>128 µg/mL	>128 µg/mL	>128 µg/mL	>128 µg/mL	>128 µg/mL	>128 µg/mL	>128 µg/mL	>128 µg/mL	>128 µg/mL	>128 µg/mL	>128 µg/mL	>512 µg/mL	>128 µg/mL	>128 µg/mL	>512 µg/mL	–	–	–
N=C(N)NCCC[C@H](NC(=O)[C@@H]1CCCN1C(=O)[C@H](CCCNC(=N)N)NC(=O)[C@@H]1CCCN1C(=O)[C@H](CCCNC(=N)N)NC(=O)[C@@H]1CCCN1C(=O)CC12CC3CC(CC(C3)C1)C2)C(=O)N1CCC[C@H]1C(N)=O [Ad-PRP, Adamantyl-CH2CO-PRPRPRP-NH2] ({Acetyl(1-adamantyl)}-PRPRPRP-NH2)	>128 µg/mL	>128 µg/mL	>128 µg/mL	>128 µg/mL	>128 µg/mL	>128 µg/mL	>128 µg/mL	>128 µg/mL	>128 µg/mL	>128 µg/mL	>128 µg/mL	>128 µg/mL	>128 µg/mL	>128 µg/mL	>512 µg/mL	>128 µg/mL	>128 µg/mL	>512 µg/mL	indifferent interaction	indifferent interaction	–

Second part, led by results:

MIC (E. faecalis ATCC 29212)	MIC [2]	MIC [3]	MIC [4]	MIC [5]	MIC [6]	MIC (E. faecium ATCC 27270)	MIC (K. pneumoniae ATCC 13883)	MIC [7]	MIC (P. aeruginosa ATCC 27853)	MIC [8]	MIC (S. aureus ATCC 29213)	MIC [9]	MIC [10]	MIC [11]	MIC [12]	MIC (E. coli ATCC 25922)	Structure (SMILES)	MHC (minimum concentration that resulted in 5% red blood cell hemolysis) (pig erythrocytes; red cells of porcine)	interaction with minocycline (in words) [1]	interaction with rifampicin (in words) [1]	further results
64 µg/mL	64 µg/mL	>128 µg/mL	64 µg/mL	32 µg/mL	128 µg/mL	64 µg/mL	128 µg/mL	128 µg/mL	>128 µg/mL	64 µg/mL	64 µg/mL	>128 µg/mL	>128 µg/mL	32 µg/mL	64 µg/mL	128 µg/mL	CCCCCCCCCCCCCCCC(=O)N1CCC[C@H]1C(=O)N[C@@H](CCCNC(=N)N)C(=O)N1CCC[C@H]1C(=O)N[C@@H](CC(C)C)C(=O)N1CCC[C@H]1C(=O)N[C@@H](CCCNC(=N)N)C(=O)N1CCC[C@H]1C(N)=O [Compound C16-PLP, CH3(CH2)14CO-PRPLPRP-NH2] (Palmitoyl-PRPLPRP-NH2)	–	–	–	MHC (minimum concentration that resulted in 5% red blood cell hemolysis) (pig erythrocytes): 16 µg/mL
32 µg/mL	128 µg/mL	>128 µg/mL	32 µg/mL	16 µg/mL	128 µg/mL	32 µg/mL	>128 µg/mL	128 µg/mL	>128 µg/mL	128 µg/mL	32 µg/mL	>128 µg/mL	>128 µg/mL	64 µg/mL	16 µg/mL	128 µg/mL	CCCCCCCCCCCC(=O)N1CCC[C@H]1C(=O)N[C@@H](CCCNC(=N)N)C(=O)N1CCC[C@H]1C(=O)N[C@@H](Cc1c[nH]c2ccccc12)C(=O)N1CCC[C@H]1C(=O)N[C@@H](CCCNC(=N)N)C(=O)N1CCC[C@H]1C(N)=O [Compound C12-PWP, CH3(CH2)10CO-PRPWPRP-NH2] (Lauroyl-PRPWPRP-NH2)	–	–	–	MHC (minimum concentration that resulted in 5% red blood cell hemolysis) (pig erythrocytes): 64 µg/mL
